Source: US8815857B2 (Boehringer Ingelheim International GmbH, priority 2011, dated 2014)
Values after ≈ are worked out from the molar mass of the structure shown.

Experiments:
[1] = biological target: T1, Recombinant human soluble guanylate cyclase (sGC), alpha 1 / beta 1 subunits, heme-free (Homo sapiens, UniProt Q02108+Q02153); experiment: Molecular assay: cGMP formation by heme-free recombinant sGC (CisBio cGMP detection kit); type: biochemical; conditions: 300 pM heme-free sGC, 37° C., 60 min, cGMP readout; read-out: EC50 nM, Activity of Compounds in Molecular Assay
T1 construct: histidine tag (C); made in house; host or cells: Sf9 insect cells (baculovirus coinfection)
T1 sequence (Q02108 1-690 partner): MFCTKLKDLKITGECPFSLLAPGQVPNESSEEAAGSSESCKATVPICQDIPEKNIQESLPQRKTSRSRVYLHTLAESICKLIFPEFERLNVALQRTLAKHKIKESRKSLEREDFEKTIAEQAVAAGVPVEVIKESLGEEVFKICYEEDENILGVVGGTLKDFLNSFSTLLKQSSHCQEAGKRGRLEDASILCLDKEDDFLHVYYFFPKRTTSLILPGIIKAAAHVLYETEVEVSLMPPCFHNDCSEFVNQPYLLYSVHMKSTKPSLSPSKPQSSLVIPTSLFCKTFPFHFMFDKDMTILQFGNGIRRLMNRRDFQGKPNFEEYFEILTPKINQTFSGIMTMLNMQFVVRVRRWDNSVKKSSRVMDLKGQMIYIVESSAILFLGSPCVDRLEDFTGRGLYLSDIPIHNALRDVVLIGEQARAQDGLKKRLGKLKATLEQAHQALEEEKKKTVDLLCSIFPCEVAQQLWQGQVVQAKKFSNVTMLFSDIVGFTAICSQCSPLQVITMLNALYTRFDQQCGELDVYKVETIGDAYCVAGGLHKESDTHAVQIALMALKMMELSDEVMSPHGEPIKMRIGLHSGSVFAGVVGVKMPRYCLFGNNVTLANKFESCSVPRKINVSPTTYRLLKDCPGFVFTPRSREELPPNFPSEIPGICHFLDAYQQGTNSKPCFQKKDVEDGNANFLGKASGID
T1 sequence (Q02153 1-619): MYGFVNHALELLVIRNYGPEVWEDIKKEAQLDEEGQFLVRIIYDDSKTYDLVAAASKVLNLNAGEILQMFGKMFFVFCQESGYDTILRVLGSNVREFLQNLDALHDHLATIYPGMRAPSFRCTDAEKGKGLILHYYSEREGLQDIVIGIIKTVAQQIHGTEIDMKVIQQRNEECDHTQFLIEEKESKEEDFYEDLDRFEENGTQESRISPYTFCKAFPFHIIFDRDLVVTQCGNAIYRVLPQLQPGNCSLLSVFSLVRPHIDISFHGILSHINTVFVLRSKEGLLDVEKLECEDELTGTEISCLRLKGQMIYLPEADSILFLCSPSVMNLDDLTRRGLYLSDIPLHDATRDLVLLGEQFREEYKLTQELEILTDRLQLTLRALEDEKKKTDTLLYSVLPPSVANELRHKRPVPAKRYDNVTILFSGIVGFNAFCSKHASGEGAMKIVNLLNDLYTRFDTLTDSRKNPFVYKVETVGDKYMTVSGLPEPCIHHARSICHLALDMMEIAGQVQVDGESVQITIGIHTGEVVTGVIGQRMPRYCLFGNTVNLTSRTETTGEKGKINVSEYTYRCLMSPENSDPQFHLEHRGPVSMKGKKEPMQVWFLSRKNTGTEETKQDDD
Description: Recombinant human soluble guanylate cyclase (sGC) is purified from Sf9 insect cells coinfected with baculoviruses expressing the alpha 1 or beta 1 subunit of sGC, both with a C-terminal histidine tag. Heme-free sGC is prepared by treating cell lysate with a final concentration of 0.5% Tween 20 prior to purification on a nickel affinity column.
sGC catalyzes the conversion of guanosine-5′-triphosphate (GTP) to cyclic guanosine monophosphate (cGMP). The activity of sGC is measured in vitro using the commercially available CisBio cGMP detection kit (catalog # 62GM2PEB) in a 384 well format. In brief, 300 pM heme-free sGC is incubated in reaction buffer (50 mM MOPS pH 6.8, 0.2 N KOH, 50 mM NaCl, 2 mM MgCl2, 0.1% BSA, 1.25 mM IBMX, 0.25 mM TCEP, 50 nM GTP) in the presence or absence of dilutions of test compounds diluted in DMSO (final concentration of 1%) in a volume of 10 microL at 37° C. for 60 min. Undiluted reaction products or an 80-fold dilution of reaction products (10 microL of either) prepared in reaction buffer containing 0.2 mM TCEP and 10 mM EDTA is mixed with 5 microL of d2-cGMP plus 5 microL of Eu^3+ cryptate-labeled anti-cGMP, each diluted in buffer containing 0.1 M KPO4 pH 7.5, 0.4 M KF, 20 mM EDTA, 0.2% BSA. After a one h incubation at room temperature in the dark, the mixtures are quantified on an EnVision plate reader (PerkinElmer) according to manufacturer instructions (laser excitation 337 nm, emission 620 and 665 nm). The ratio at each compound concentration is converted to nM cGMP using the linear portion of a calibration curve. Log compound concentration is plotted against combined undiluted and diluted nM cGMP values to determine the EC50 for each curve.

[2] = Assessment of solubility: HT solubility in pION buffer, UV spectrophotometry; conditions: 16-19 h incubation, 1.0% DMSO; for solubility: pION system solution buffer, kinetic from dmso stock
[3] = pH 4.5, pH 4.5, aqueous buffer, Solubility (pH 4.5), pH 4.5 buffer
[4] = pH 7.4, pH 7.4, aqueous buffer, Solubility (pH 7.4), pH 7.4 buffer

Structure (SMILES) | EC50 [1] [nM] | solubility [2, 3] [µg/mL] | solubility [2, 4] [µg/mL] | Solubility (pH 4.5) ([2]; pH 4.5 buffer) [μg/mL] | Solubility (pH 7.4) ([2]; pH 7.4 buffer) [μg/mL]
Cc1ccc(OCc2ccc(CN3CCOCC3)cc2C)c(-c2csc(N3CC[C@@H](C(=O)O)C3)n2)c1 (single isomer, unassigned) [Compound 5, R-1-{4-[5-methyl-2-(2-methyl-4-morpholin-4-ylmethyl-benzyloxy)-phenyl]-thiazol-2-yl}-pyrrolidine-3-carboxylic acid] | 2000 | 37 (≈ 72.9 µM) | 40 (≈ 78.8 µM) |  | 
Cc1ccc(OCc2ccc(CN3CCOCC3)cc2C)c(-c2csc(N3CC[C@@H](C(=O)O)[C@@H](C)C3)n2)c1 (single isomer, unassigned) [Compound 50] | 520 | 18 (≈ 33.6 µM) | > 53 |  | 
Cc1ccc(OCc2ccc(CN3CCOCC3)cc2C)c(-c2csc(NCCC(=O)O)n2)c1 [Compound 3] | 1300 | > 52 | > 52 |  | 
Cc1ccc(OCc2ccc(CN3CCOCC3)cc2C)c(-c2csc(NCCCC(=O)O)n2)c1 [Compound 4] | 760 | > 54 | > 54 |  | 
Cc1ccc(OCc2ccc(CN3CCOCC3)cc2C)c(-c2csc(N3CCC(C(=O)O)C3)n2)c1 (stereo not drawn) [Compound 6] | 610 | > 62 | > 62 |  | 
Cc1cc(C(=O)N2CCCCC2)ccc1COc1ccccc1-c1csc(N2CC3C(C2)C3C(=O)O)n1 (stereo not drawn) [Compound 9] | 680 | 5.6 (≈ 10.8 µM) | > 51 |  | 
Cc1ccc(OCc2ccc(CN3CCOCC3)cc2C)c(-c2csc(C3=CCC(C(=O)O)CC3)n2)c1 (stereo not drawn) [Compound 10] | 4900 | 14 (≈ 27 µM) | 22 (≈ 42.4 µM) |  | 
Cc1cc(C(=O)N2CCCCC2)ccc1COc1ccccc1-c1csc([C@H]2CC[C@@H](C(=O)O)CC2)n1 [Compound 11] | 2300 |  | > 51 | 0.1 | 
Cc1cc(C(=O)N2CCCCC2)ccc1COc1ccccc1-c1csc([C@H]2CC[C@H](C(=O)O)CC2)n1 [Compound 12] | 4000 |  | > 51 | 0.1 | 
Cc1ccc(OCc2ccc(CN3CCOCC3)cc2C)c(-c2csc(N3CC4C(C3)C4C(=O)O)n2)c1 (stereo not drawn) [Compound 14] | 4700 | > 63 | > 63 |  | 
Cc1ccc(OCc2ccc(CN3CCOCC3)cc2C)c(-c2csc(N3CCCC(C(=O)O)C3)n2)c1 (stereo not drawn) [Compound 22] | 1600 | > 63 | > 63 |  | 
Cc1ccc(OCc2ccc(CN3CCOCC3)cc2C)c(-c2csc(N3CCC(CC(=O)O)C3)n2)c1 (stereo not drawn) [Compound 23] | 3200 | > 56 | > 56 |  | 
Cc1cc(CN2CCOCC2)ccc1COc1ccccc1-c1csc(N2CCC(C(=O)O)C(C)C2)n1 (stereo not drawn) [Compound 24] | 510 | > 59 | > 59 |  | 
Cc1ccc(OCc2ccc(CNCC(C)(C)O)cc2C)c(-c2csc(N3CCC(C(=O)O)CC3)n2)c1 [Compound 25] | 1300 | > 63 | > 63 |  | 
Cc1ccc(OCc2ccc(CNC(C)(C)CO)cc2C)c(-c2csc(N3CCC(C(=O)O)CC3)n2)c1 [Compound 26] | 2000 | > 63 | > 63 |  | 

Now those with a lower EC50 [1], led by results:

EC50 [1] [nM] | solubility [2, 3] [µg/mL] | solubility [2, 4] [µg/mL] | Solubility (pH 4.5) ([2]; pH 4.5 buffer) [μg/mL] | Solubility (pH 7.4) ([2]; pH 7.4 buffer) [μg/mL] | Structure (SMILES)
72 | > 65 | > 65 |  |  | Cc1ccc(OCc2ccc(CN3CCOCC3)cc2C#N)c(-c2csc(N3CC[C@@H](C(=O)O)[C@@H](C)C3)n2)c1 (relative stereo) [Compound 69, cis-1-[4-[2-[[2-cyano-4-(morpholinomethyl)phenyl]methoxy]-5-methyl-phenyl]thiazol-2-yl]-3-methyl-piperidine-4-carboxylic acid]
60 | 0.85 (≈ 1.54 µM) | > 100 |  |  | Cc1cc(C(=O)N2CCCCC2)ccc1COc1ccc(F)cc1-c1csc(N2CCC(C(=O)O)C(C)C2)n1 (stereo not drawn) [Compound 1]
320 |  |  | >71 | >71 | Cc1cc(CN2CCOCC2)ccc1COc1ccccc1-c1csc(N2CCC(C(=O)O)C(C)C2)n1 (stereo not drawn) [Compound 2]
330 | 0.15 (≈ 0.29 µM) | > 51 |  |  | Cc1cc(C(=O)N2CCCCC2)ccc1COc1ccccc1-c1csc(C2=CCC(C(=O)O)CC2)n1 (stereo not drawn) [Compound 8]
120 |  |  | 17 | >51 | Cc1ccc(OCc2ccc(C(=O)N3CCCC3)cc2C)c(-c2csc(N3CCC(C(=O)O)CC3)n2)c1 [Compound 13]
190 | 13 (≈ 25 µM) | > 51 |  |  | Cc1cc(C(=O)N2CCCC2)ccc1COc1c(C)cccc1-c1csc(N2CCC(C(=O)O)CC2)n1 [Compound 15]
79 | 0.7 (≈ 1.35 µM) | > 51 |  |  | Cc1cc(C(=O)N2CCCCC2)ccc1COc1ccccc1-c1csc(N2CCC(C(=O)O)CC2)n1 [Compound 17]
140 | 33 (≈ 63.3 µM) | 36 (≈ 69 µM) |  |  | Cc1ccc(OCc2ccc(CN3CCOCC3)cc2C)c(-c2csc(N3CCC(C(=O)O)CC3)n2)c1 [Compound 20, 1-{4-[5-methyl-2-(2-methyl-4-morpholin-4-ylmethyl-benzyloxy)-phenyl]-thiazol-2-yl}-piperidine-4-carboxylic acid]
70 | > 52 | > 52 |  |  | Cc1cc(CN2CCOCC2)ccc1COc1c(C)cccc1-c1csc(N2CCC(C(=O)O)CC2)n1 [Compound 21]
200 | > 52 | > 52 |  |  | Cc1cc(CN2CCOCC2)ccc1COc1ccc(F)cc1-c1csc(N2CCC(C(=O)O)CC2)n1 [Compound 28]
440 | > 64 | 5.2 (≈ 9.8 µM) |  |  | Cc1ccc(OCc2ccc(CN3CCCCC3)cc2C#N)c(-c2csc(N3CCC(C(=O)O)CC3)n2)c1 [Compound 29]
61 | 3.1 (≈ 5.84 µM) | > 53 |  |  | Cc1ccc(OCc2ccc(C(=O)N3CCCC3)cc2C#N)c(-c2csc(N3CCC(C(=O)O)CC3)n2)c1 [Compound 30, 1-[4-[2-[[2-cyano-4-(pyrrolidine-1-carbonyl)phenyl]methoxy]-5-methyl-phenyl]thiazol-2-yl]piperidine-4-carboxylic acid]
250 | 25 (≈ 47.1 µM) | > 53 |  |  | Cc1cccc(-c2csc(N3CCC(C(=O)O)CC3)n2)c1OCc1ccc(C(=O)N2CCCC2)cc1C#N [Compound 31]
